Holding throughout (format): biochemical
The target in assay [1] is IMP-1 (Serratia marcescens, UniProt P52699). The experiment in a line: In vitro enzyme inhibition assay, purified IMP-1 (imipenem hydrolysis, UV 299 nm). The protocol:
(§1) Enzyme inhibition assays were performed using purified MBL enzymes (NDM-1; VIM-1; VIM-2; IMP-1) in 10 mM HEPES buffer pH 7.5 in 96-well microtiter plates. Imipenem (300 μM) was used as substrate and its hydrolysis was followed at UV 299 nm during 10 mn every 30 seconds using a Perkin Elmer Envision UV fluorescence plate reader.
(§2) Mean Ki values from multiple experiments are presented below.
(§3) Studies were undertaken to compare the compounds of the invention with structurally similar compounds (“Comp. x”). Experiments were conducted as described above.

In assay [2] the target is VIM-2 (Escherichia coli, UniProt Q5U7L7). The experiment in a line: In vitro enzyme inhibition assay, purified VIM-2 (imipenem hydrolysis, UV 299 nm). The protocol: as §1, §2, §3
Assay [3] addresses VIM-1 (Pseudomonas aeruginosa, UniProt A0A0F7KYQ8). The experiment in a line: In vitro enzyme inhibition assay, purified VIM-1 (imipenem hydrolysis, UV 299 nm). Here is the method: as §1, §2, §3
The target in assay [4] is NDM-1 (Klebsiella pneumoniae, UniProt C7C422). Kind of assay: In vitro enzyme inhibition assay, purified NDM-1 (imipenem hydrolysis, UV 299 nm). The protocol:
as §1, §2, §3

The mark [5] stands for this setting: comparative study bands, read-out: Ki IMP-1 (comparative study).
Where [6] appears, read: comparative study bands, read-out: Ki VIM-2 (comparative study).
Setting [7] is: comparative study bands, read-out: Ki VIM-1 (comparative study).
Where [8] appears, read: comparative study bands, read-out: Ki NDM-1 (comparative study).
[9] abbreviates: mean Ki from multiple experiments, imipenem 300 μM, Cheng-Prusoff from IC50, read-out: Ki IMP-1.
The mark [10] stands for this setting: mean Ki from multiple experiments, imipenem 300 μM, Cheng-Prusoff from IC50, read-out: Ki VIM-2.
Setting [11] is: mean Ki from multiple experiments, imipenem 300 μM, Cheng-Prusoff from IC50, read-out: Ki VIM-1.
Where [12] appears, read: mean Ki from multiple experiments, imipenem 300 μM, Cheng-Prusoff from IC50, read-out: Ki NDM-1.

Broadly, the Ki is a measure of affinity in units of concentration, obtained from inhibition or displacement.

Each structure is given as a SMILES string. Like-named read-outs stand apart in the source and are kept apart here.

Chain of NDM-1 (C7C422 29-270, looked up): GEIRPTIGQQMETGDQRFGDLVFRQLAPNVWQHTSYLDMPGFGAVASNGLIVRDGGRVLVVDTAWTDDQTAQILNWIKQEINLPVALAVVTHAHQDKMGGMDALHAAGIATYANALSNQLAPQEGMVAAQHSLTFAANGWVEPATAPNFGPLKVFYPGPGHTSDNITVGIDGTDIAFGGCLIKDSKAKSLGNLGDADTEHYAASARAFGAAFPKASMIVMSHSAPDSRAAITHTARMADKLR
Chain of IMP-1 (P52699 19-246, looked up, species assumed): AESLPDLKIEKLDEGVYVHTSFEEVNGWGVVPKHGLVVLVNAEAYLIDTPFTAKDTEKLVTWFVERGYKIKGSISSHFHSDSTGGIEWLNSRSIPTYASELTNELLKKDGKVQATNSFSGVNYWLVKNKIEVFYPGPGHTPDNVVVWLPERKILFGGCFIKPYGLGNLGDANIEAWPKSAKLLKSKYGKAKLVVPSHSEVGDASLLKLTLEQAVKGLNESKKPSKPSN

With `NCC(=O)Nc1ncc(S(=O)(=O)Nc2scnc2C(=O)O)cc1F` [Comp. C, reference compound], the inhibition constant Ki fell in the range of 600 to 5000 nM in assay [1] (setting [5]), 100 to 150 nM in assay [2] (setting [6]), 500 to 1000 nM in assay [3] (setting [7]) and 100 to 300 nM in assay [4] (setting [8]).

Take `N#Cc1cc(S(=O)(=O)Nc2scnc2C(=O)O)ccc1NC(=O)CN` [Comp. D, reference compound]: the Ki in assay [1] (setting [5]) fell in the range of 150 to 600 nM; in assay [2] (setting [6]), 20 to 50 nM; in assay [3] (setting [7]) it was 500 to 1000 nM; in assay [4] (setting [8]), 30 to 100 nM.

For the compound `N#Cc1cc(S(=O)(=O)Nc2scnc2C(=O)O)ccc1NC(=O)CN` [Comp. F, reference compound], the Ki in assay [3] (setting [7]) was in the range of 150 to 300 nM.

For `NCC(=O)Nc1ccc(S(=O)(=O)Nc2scnc2C(=O)O)cc1OC(F)(F)F` [Comp. G, reference compound], the inhibition constant Ki in assay [1] (setting [5]) lay in the range of 150 to 600 nM; in assay [2] (setting [6]), 20 to 50 nM; in assay [3] (setting [7]), 300 to 500 nM; in assay [4] (setting [8]) it was 30 to 100 nM.

Consider `NCC(=O)Nc1ccc(S(=O)(=O)Nc2scnc2C(=O)O)cc1` [Comp. H, reference compound], for which the inhibition constant (Ki) in assay [1] (setting [5]) is 5000 to 10000 nM; in assay [2] (setting [6]) it was 20 to 50 nM; in assay [3] (setting [7]), 500 to 1000 nM; in assay [4] (setting [8]) it was 100 to 300 nM.

For `NNC(=O)Nc1ccc(S(=O)(=O)Nc2scnc2C(=O)O)cc1F` [Comp. I, reference compound], the Ki in assay [1] (setting [5]) is 600 to 5000 nM; in assay [3] (setting [7]), 500 to 1000 nM; in assay [4] (setting [8]), 100 to 300 nM.

In the case of `N=C(N)NCC(=O)Nc1ncc(S(=O)(=O)Nc2scnc2C(=O)O)cc1F` [Example 3, 5-[[5-fluoro-6-[(2-guanidinoacetyl)amino]-3-pyridyl]sulfonylamino]thiazole-4-carboxylic acid], the Ki in assay [1] (setting [5]) lay within 600 to 5000 nM; in assay [1] (setting [9]), 1000 to 10000 nM; in assay [2] (setting [6]), 20 to 50 nM; in assay [2] (setting [10]), 20 to 50 nM; in assay [3] (setting [7]), 300 to 500 nM; in assay [3] (setting [11]), 200 to 500 nM. Besides, the inhibitory constant (Ki) in assay [4] (setting [8]) lay in the range of 100 to 300 nM; in assay [4] (setting [12]) it was 50 to 200 nM.

On to `N=C(N)CC(=O)Nc1ccc(S(=O)(=O)Nc2scnc2C(=O)O)cc1F` [Example 4, 5-[[4-[(3-amino-3-imino-propanoyl)amino]-3-fluoro-phenyl]sulfonylamino]thiazole-4-carboxylic acid], for which the Ki is 1000 to 10000 nM in assay [1] (setting [9]), 20 to 50 nM in assay [2] (setting [10]), 200 to 500 nM in assay [3] (setting [11]) and < 50 nM in assay [4] (setting [12]).

As for `N#Cc1cc(S(=O)(=O)Nc2scnc2C(=O)O)ccc1NC(=O)CNC(=N)N` [Example 5, 5-[[3-cyano-4-[(2-guanidinoacetyl)amino]phenyl]sulfonylamino]thiazole-4-carboxylic acid], the Ki was 150 to 600 nM in assay [1] (setting [5]); < 500 nM in assay [1] (setting [9]); 20 to 50 nM in assay [2] (setting [6]); 20 to 50 nM in assay [2] (setting [10]); 150 to 300 nM in assay [3] (setting [7]); < 200 nM in assay [3] (setting [11]). Moreover, the Ki in assay [4] (setting [8]) is 30 to 100 nM; in assay [4] (setting [12]), 50 to 200 nM.

Consider `N=C(N)NCC(=O)Nc1ccc(S(=O)(=O)Nc2scnc2C(=O)O)cc1C(N)=O` [Example 6, 5-[[3-carbamoyl-4-[(2-guanidinoacetyl)amino]phenyl]sulfonylamino]thiazole-4-carboxylic acid], for which the values for the Ki in assay [1] (setting [9]), in assay [3] (setting [11]) and in assay [4] (setting [12]) were 1000 to 10000 nM, 200 to 500 nM and 200 to 2000 nM, respectively.

Turning to `CN(CC(=O)Nc1ccc(S(=O)(=O)Nc2scnc2C(=O)O)cc1F)C(=N)N` [Example 8, 5-[[4-[[2-[carbamimidoyl(methyl)amino]acetyl]amino]-3-fluoro-phenyl]sulfonylamino]thiazole-4-carboxylic acid], the inhibitory constant (Ki) was 1000 to 10000 nM in assay [1] (setting [9]), 200 to 500 nM in assay [3] (setting [11]) and 50 to 200 nM in assay [4] (setting [12]).

Take `N=C(N)NCC(=O)Nc1cc(F)c(S(=O)(=O)Nc2scnc2C(=O)O)cc1F` [Example 9, 5-[[2,5-difluoro-4-[(2-guanidinoacetyl)amino]phenyl]sulfonylamino]thiazole-4-carboxylic acid]: the inhibitory constant (Ki) was 1000 to 10000 nM in assay [1] (setting [9]), < 20 nM in assay [2] (setting [10]), 200 to 500 nM in assay [3] (setting [11]) and 50 to 200 nM in assay [4] (setting [12]).

As for `C[C@@H](NC(=N)N)C(=O)Nc1ccc(S(=O)(=O)Nc2scnc2C(=O)O)cc1` [Example 11, 5-[[4-[[(2R)-2-guanidinopropanoyl]amino]phenyl]sulfonylamino]thiazole-4-carboxylic acid], the Ki in assay [1] (setting [9]) lay in the range of 1000 to 10000 nM; in assay [3] (setting [11]), 200 to 500 nM; in assay [4] (setting [12]), 200 to 2000 nM.

For the compound `CN(C)C(=N)CC(=O)Nc1ccc(S(=O)(=O)Nc2scnc2C(=O)O)cc1F` [Example 12, 5-[[4-[[3-(dimethylamino)-3-imino-propanyl]amino]-3-fluoro-phenyl]sulfonylamino]thiazole-4-carboxylic acid], the results for the Ki in assay [1] (setting [9]), in assay [3] (setting [11]) and in assay [4] (setting [12]) were 500 to 1000 nM, 200 to 500 nM and 50 to 200 nM, respectively.

For `N=C(N)NCC(=O)Nc1ccc(S(=O)(=O)Nc2scnc2C(=O)O)nn1` [Example 14, 5-[[6-[(2-guanidinoacetyl)amino]pyridazin-3-yl]sulfonylamino]thiazole-4-carboxylic acid], the inhibition constant (Ki) in assay [1] (setting [9]) lay in the range of 1000 to 10000 nM; in assay [3] (setting [11]), 200 to 500 nM; in assay [4] (setting [12]) it was 200 to 2000 nM.

Consider `O=C(CNC1=NCCN1)Nc1c(F)cc(S(=O)(=O)Nc2scnc2C(=O)O)cc1F` [Example 15, 5-[[4-[[2-(4,5-dihydro-1H-imidazol-2-ylamino)acetyl]amino]-3,5-difluoro-phenyl]sulfonylamino]thiazole-4-carboxylic acid], for which the inhibition constant (Ki) in assay [1] (setting [9]) was 1000 to 10000 nM; in assay [3] (setting [11]), 500 to 1000 nM; in assay [4] (setting [12]), 50 to 200 nM.

As for `N=C(N)NCC(=O)Nc1ccc(S(=O)(=O)Nc2scnc2C(=O)O)cc1` [Example 20, 5-[[4-[(2-guanidinoacetyl)amino]phenyl]sulfonylamino]thiazole-4-carboxylic acid], the Ki lay within 150 to 300 nM in assay [3] (setting [7]), 200 to 500 nM in assay [3] (setting [11]), 100 to 300 nM in assay [4] (setting [8]) and 50 to 200 nM in assay [4] (setting [12]).

With `O=C(CC1=NCCN1)Nc1ccc(S(=O)(=O)Nc2scnc2C(=O)O)cc1F` [Example 21, 5-[[4-[[2-(4,5-dihydro-1H-imidazol-2-yl)acetyl]amino]-3-fluoro-phenyl]sulfonylamino]thiazole-4-carboxylic acid], the inhibitory constant (Ki) in assay [1] (setting [9]) was 500 to 1000 nM; in assay [3] (setting [11]), 200 to 500 nM; in assay [4] (setting [12]), < 50 nM.

`N=C(N)NNC(=O)Cc1ccc(S(=O)(=O)Nc2scnc2C(=O)O)cc1F` [Example 24, 5-[[4-[2-(2-carbamimidoylhydrazino)-2-oxo-ethyl]-3-fluoro-phenyl]sulfonylamino]thiazole-4-carboxylic acid]: the figures for the Ki in assay [1] (setting [9]), in assay [3] (setting [11]) and in assay [4] (setting [12]) were 1000 to 10000 nM, 500 to 1000 nM and 50 to 200 nM, respectively.

Regarding `N=C(N)CNC(=O)Cc1ccc(S(=O)(=O)Nc2scnc2C(=O)O)cc1F` [Example 25, 5-[[4-[2-[(2-amino-2-imino-ethyl)amino]-2-oxo-ethyl]-3-fluoro-phenyl]sulfonylamino] thiazole-4-carboxylic acid], the Ki in assay [1] (setting [9]) was 500 to 1000 nM; in assay [3] (setting [11]), 200 to 500 nM; in assay [4] (setting [12]), 50 to 200 nM.

Consider `N=C(NCC(=O)Nc1ccc(S(=O)(=O)Nc2scnc2C(=O)O)cc1F)N1CCOCC1` [Example 33, 5-[[3-fluoro-4-[[2-(morpholine-4-carboximidoylamino)acetyl]amino]phenyl]sulfonylamino]thiazole-4-carboxylic acid], for which the Ki in assay [1] (setting [9]) fell in the range of 1000 to 10000 nM; in assay [3] (setting [11]) it was 200 to 500 nM; in assay [4] (setting [12]), 200 to 2000 nM.

As for `CC(C(=N)N)C(=O)Nc1ccc(S(=O)(=O)Nc2scnc2C(=O)O)cc1F` (stereo not drawn) [Example 37, 5-[[4-[(3-amino-3-imino-2-methyl-propanoyl)amino]-3-fluoro-phenyl]sulfonylamino]thiazole-4-carboxylic acid], the Ki is 1000 to 10000 nM in assay [1] (setting [9]), < 200 nM in assay [3] (setting [11]) and 200 to 2000 nM in assay [4] (setting [12]).

`N=C1NCCN1CC(=O)Nc1ccc(S(=O)(=O)Nc2scnc2C(=O)O)cc1F` [Example 38, 5-[[3-fluoro-4-[[2-(2-iminoimidazolidin-1-yl)acetyl]amino]phenyl]sulfonylamino]thiazole-4-carboxylic acid]: the Ki lay in the range of 1000 to 10000 nM in assay [1] (setting [9]), 200 to 500 nM in assay [3] (setting [11]) and 200 to 2000 nM in assay [4] (setting [12]).

As to `CNC(=N)NCC(=O)Nc1ccc(S(=O)(=O)Nc2scnc2C(=O)O)cc1F` [Example 40, 5-[[3-fluoro-4-[[2-[(N-methylcarbamimidoyl)amino]acetyl]amino]phenyl]sulfonylamino]thiazole-4-carboxylic acid], the figures for the inhibitory constant (Ki) in assay [1] (setting [9]), in assay [3] (setting [11]) and in assay [4] (setting [12]) were 1000 to 10000 nM, 200 to 500 nM and 200 to 2000 nM, respectively.

As for `N=C(N)NOCC(=O)Nc1ccc(S(=O)(=O)Nc2scnc2C(=O)O)cc1F` [Example 42, 5-[[3-fluoro-4-[(2-guanidinooxyacetyl)amino]phenyl]sulfonylamino]thiazole-4-carboxylic acid], the Ki in assay [1] (setting [9]) was in the range of 1000 to 10000 nM; in assay [3] (setting [11]), 500 to 1000 nM; in assay [4] (setting [12]) it was 200 to 2000 nM.

As for `N=C(N)N/N=C/C(=O)Nc1ccc(S(=O)(=O)Nc2scnc2C(=O)O)cc1F` [Example 43, 5-[[4-[[(2E)-2-(carbamimidoylhydrazono)acetyl]amino]-3-fluoro-phenyl]sulfonylamino]thiazole-4-carboxylic acid], the inhibition constant Ki in assay [1] (setting [9]) is < 500 nM; in assay [3] (setting [11]), 200 to 500 nM; in assay [4] (setting [12]), 50 to 200 nM.

The values above are taken from patent US11299467B2 (Antabio SAS, priority 2017, dated 2022).
